A word on the IC50: it is the concentration needed to halve the response being measured. Low readings indicate greater potency in that assay, high ones weaker potency in that assay.

One test concerns the target T1, PTHR (Homo sapiens, UniProt Q03431).
T1 sequence (Q03431 27-593): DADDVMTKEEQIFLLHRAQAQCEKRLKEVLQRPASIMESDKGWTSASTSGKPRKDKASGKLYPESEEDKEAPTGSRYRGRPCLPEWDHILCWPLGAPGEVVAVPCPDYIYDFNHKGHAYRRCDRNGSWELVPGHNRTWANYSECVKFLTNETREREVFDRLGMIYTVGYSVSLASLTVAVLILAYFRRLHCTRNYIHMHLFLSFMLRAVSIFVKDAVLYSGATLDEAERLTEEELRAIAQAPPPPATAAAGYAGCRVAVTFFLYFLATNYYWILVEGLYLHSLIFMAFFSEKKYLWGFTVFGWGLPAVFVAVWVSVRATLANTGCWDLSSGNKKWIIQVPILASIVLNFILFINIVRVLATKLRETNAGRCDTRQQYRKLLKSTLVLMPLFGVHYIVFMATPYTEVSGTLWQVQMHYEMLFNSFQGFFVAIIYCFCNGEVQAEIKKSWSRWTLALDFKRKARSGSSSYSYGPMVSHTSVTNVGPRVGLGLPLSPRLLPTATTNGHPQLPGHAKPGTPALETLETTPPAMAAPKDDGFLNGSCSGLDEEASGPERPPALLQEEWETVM
In words: Time-course measurement of cAMP by FRET. In kind it is cell-based. The conditions noted are these: comparison of PTH^WT and its diastereomers, fig. S1B.

A further test concerns the target T2, PTHR^CFP and βarr-2^YFP (Homo sapiens, UniProt Q03431).
T2 sequence (Q03431 27-593): T1 sequence (Q03431 27-593)
Briefly: Time-course of β-arr2 recruitment by FRET. In kind it is cell-based. The conditions noted are these: comparison of PTH^WT and its diastereomers, fig. S1C.

The target of test [1] is PTHR in membranes of HEK-293-Gs-null cells (clone CL2) (UniProt Q03431). Briefly: radioligand binding.

Regarding (D)-Asn([10])-PTH1–34 [PTH^10d], at PTHR, the “cAMP production time course” value is recorded as “indistinguishable increases in cAMP”. Moreover, the “interaction of PTHR with β-arr2, time course” value on PTHR^CFP and βarr-2^YFP is listed as “stimulated the interaction of PTHR with β-arr2”.

Turning to “(D)-Leu(7)-PTH_(1–34)-NH2 (PTH^7d) (peptide)”, the IC50 in test [1] was 100 pM. For the substance “PTH_(1–34) (PTH^WT), the synthetic N-terminal fragment of parathyroid hormone (peptide)”, the IC50 in test [1] came to 100 pM.
